Calls of active or inactive are those of the source. The calls are words filed in the database; no cut-off is given here.
How the values were obtained:
[1] = Inhibition of PKC at 0.2 mM after 90 mins by ELISA
[2] = Inhibition of PKC at 0.1 mM after 90 mins by ELISA
[3] = Inhibition of PKC at 0.025 to 0.05 mM after 90 mins by ELISA
[4] = Inhibition of PKC at 0.025 mM after 90 mins by ELISA
Rattus norvegicus = experiment: Toxicity in rat at 4 mg/kg, po after 28 days; format: organism-based; design: dose 4 mg/kg, route oral; settings: in vivo, 672 h
Mus musculus = experiment: Toxicity in mouse at 8 mg/kg, po after 28 days; format: organism-based; design: dose 8 mg/kg, route oral; settings: in vivo, 672 h
[5] = Inhibition of PKC after 90 mins by ELISA

| SMILES | inhibition [1] [%] | inhibition [2] [%] | inhibition [3] | inhibition [4] [%] | Activity (Rattus norvegicus) | Activity (Mus musculus) | inhibition [5] |
| --- | --- | --- | --- | --- | --- | --- | --- |
| CC/C(=C(\c1ccccc1)c1ccc(OCCN(C)C)cc1)c1ccccc1 | 25 | 14 | inactive | – | – | – | – |
| CC/C(=C(\c1ccc(O)cc1)c1ccc(OCCNC)cc1)c1ccccc1 [ENDOXIFEN] | 78 | – | – | 12 | Non-toxic | Non-toxic | Dose-dependent effect |

— ChEMBL document CHEMBL1156970, “Endoxifen is a new potent inhibitor of PKC: a potential therapeutic agent for bipolar disorder” (Bioorg Med Chem Lett, 2010)
